According to ChEMBL document CHEMBL3045927, “Synthesis of 4-methyl-1,2,3-thiadiazole derivatives via Ugi reaction and their biological activities” (2010):

What was measured:
Assay type in all cases: functional
Tobacco mosaic virus [1] = assay: In vivo antiviral activity against Tobacco mosaic virus (TMV) infected tobacco leaves assessed as protective effect at 500 ug/ml treated 12 hr before viral inoculation measured at 2-3 days after viral challenge
Nicotiana tabacum [2] = assay: Induction of systemic acquired resistance activity in TMV infected-Nicotiana tabacum (tobacco) leaves at 50 ug/ml
Nicotiana tabacum [3] = assay: Induction of systemic acquired resistance activity in TMV infected-Nicotiana tabacum (tobacco) leaves at 100 ug/ml
Tobacco mosaic virus [4] = assay: In vivo antiviral activity against Tobacco mosaic virus (TMV) infected tobacco leaves assessed as inactivation effect at 500 ug/ml co-treated with virus for 30 min before inoculation onto leaves measured at 2-3 days after viral challenge
Tobacco mosaic virus [5] = assay: In vitro antiviral activity against Tobacco mosaic virus (TMV) infected tobacco leaves at 500 ug/ml
Tobacco mosaic virus [6] = assay: In vivo antiviral activity against Tobacco mosaic virus (TMV) infected tobacco leaves assessed as inactivation effect at 100 ug/ml co-treated with virus for 30 min before inoculation onto leaves measured at 2-3 days after viral challenge
Tobacco mosaic virus [7] = assay: In vivo antiviral activity against Tobacco mosaic virus (TMV) infected tobacco leaves assessed as curative effect at 100 ug/ml treated after viral inoculation measured at 2-3 days after viral challenge
Tobacco mosaic virus [8] = assay: In vivo antiviral activity against Tobacco mosaic virus (TMV) infected tobacco leaves assessed as protective effect at 100 ug/ml treated 12 hr before viral inoculation measured at 2-3 days after viral challenge
Tobacco mosaic virus [9] = assay: In vivo antiviral activity against Tobacco mosaic virus (TMV) infected tobacco leaves assessed as curative effect at 500 ug/ml treated after viral inoculation measured at 2-3 days after viral challenge
Tobacco mosaic virus [10] = assay: In vitro antiviral activity against Tobacco mosaic virus (TMV) infected tobacco leaves at 100 ug/ml
[11] = tested on: Botryosphaeria berengeriana; assay: Fungicidal activity against Botryosphaeria berengeriana at 50 ug/ml by growth inhibition method; parameters: scale not given: the % may be the effect or the level left
Cercospora beticola = assay: Fungicidal activity against Cercospora beticola at 50 ug/ml by growth inhibition method; parameters: scale not given: the % may be the effect or the level left
Mycosphaerella arachidis = assay: Fungicidal activity against Mycosphaerella arachidis at 50 ug/ml by growth inhibition method; parameters: scale not given: the % may be the effect or the level left
Rhizoctonia solani = assay: Fungicidal activity against Rhizoctonia solani at 50 ug/ml by growth inhibition method; parameters: scale not given: the % may be the effect or the level left
Phytophthora infestans = assay: Fungicidal activity against Phytophthora infestans at 50 ug/ml by growth inhibition method; parameters: scale not given: the % may be the effect or the level left
Thanatephorus cucumeris = assay: Fungicidal activity against Thanatephorus cucumeris at 50 ug/ml by growth inhibition method; parameters: scale not given: the % may be the effect or the level left
Colletotrichum lagenaria = assay: Fungicidal activity against Colletotrichum lagenaria at 50 ug/ml by growth inhibition method; parameters: scale not given: the % may be the effect or the level left
Alternaria solani = assay: Fungicidal activity against Alternaria solani at 50 ug/ml by growth inhibition method; parameters: scale not given: the % may be the effect or the level left
Fusarium graminearum = assay: Fungicidal activity against Fusarium graminearum at 50 ug/ml by growth inhibition method; parameters: scale not given: the % may be the effect or the level left
Pyricularia grisea = assay: Fungicidal activity against Magnaporthe grisea at 50 ug/ml by growth inhibition method; parameters: scale not given: the % may be the effect or the level left

Structure (SMILES)	Activity (Tobacco mosaic virus [1]) [%]	Activity (Nicotiana tabacum [2]) [%]	Activity (Nicotiana tabacum [3]) [%]	Activity (Tobacco mosaic virus [4]) [%]	inhibition at 500 µg/mL (Tobacco mosaic virus [5]) [%]	Activity (Tobacco mosaic virus [6]) [%]	Activity (Tobacco mosaic virus [7]) [%]	Activity (Tobacco mosaic virus [8]) [%]	Activity (Tobacco mosaic virus [9]) [%]	inhibition at 100 µg/mL (Tobacco mosaic virus [10]) [%]	Activity [11] [%]	Activity (Cercospora beticola) [%]	Activity (Mycosphaerella arachidis) [%]	Activity (Rhizoctonia solani) [%]	Activity (Phytophthora infestans) [%]	Activity (Thanatephorus cucumeris) [%]	Activity (Colletotrichum lagenaria) [%]	Activity (Alternaria solani) [%]	Activity (Fusarium graminearum) [%]	Activity (Pyricularia grisea) [%]
NC(=O)c1ncn([C@@H]2O[C@H](CO)[C@@H](O)[C@H]2O)n1 [RIBAVIRIN]	44	40	10	71	38	57	14	40	46	28										
Cc1ccc(N(C(=O)c2snnc2C)C(C(=O)NC2CCCCC2)c2ccc([N+](=O)[O-])cc2)cc1F (stereo not given)	38	36	68	57	39	48	36	18	59	26	0	17	14	40	16	0	0	0	34	0
Cc1ccc(N(C(=O)c2snnc2C)C(C(=O)NC2CCCCC2)c2cccc([N+](=O)[O-])c2)cc1F (stereo not given)	55	50	68	62	58	48	39	27	56	44	32	33	57	30	11	45	10	0	28	14
Cc1ccc(N(C(=O)c2snnc2C)C(C(=O)NC2CCCCC2)c2ccccc2)cc1F (stereo not given)	49	69	54	29	19	11	47	41	81	19	0	33	21	28	5	0	14	0	45	14
Cc1ccc(NC(=O)c2snnc2C)cc1Cl [TIADINIL]	48	47	49	70	51	70	12	35	44	37										
Cc1ccc(N(C(=O)c2snnc2C)C(C(=O)NC2CCCCC2)c2ccccc2C)cc1F (stereo not given)	35	63	58	60	52	27	18	23	47	23	53	67	79	51	47	16	43	44	34	57
Cc1ccc(N(C(=O)c2snnc2C)C(C(=O)NC2CCCCC2)c2cccc(C(F)(F)F)c2)cc1F (stereo not given)	54	68	38	31	67	21	28	19	42	29	85	0	71	97	88	74	95	100	62	14
Cc1ccc(N(C(=O)c2snnc2C)C(C(=O)NC2CCCCC2)c2ccccc2C(F)(F)F)cc1F (stereo not given)	51	57	45	39	48	26	13	49	30	33	23	75	29	37	53	11	47	44	15	29
